Patent US20180142206A1, “REVERSION OF PRIMED PLURIPOTENT STEM CELLS TO NAIVE PLURIPOTENT STEM CELLS” (The J. David Gladstone Institutes, A Testamentary Trust …, priority 2015, published 2018)

Experiments:
Xi-GFP mEpiSCs [1] = assay: Flow cytometric analysis of GFP and CD31 expression in Xi-GFP mEpiSCs; type: cell-based, mouse; conditions: for % of GFP/CD31 double positive cells compared with LIF alone: added to N2B27 medium containing LIF; for LIF induced Xi-reactivation (GFP/CD31 double positive cells): LIF-containing mEpiSC medium with or without Activin A and bFGF
Description: To more quantitatively assess the proportion of GFP positive cells under these three culture conditions, Fluorescence Activated Cell Sorting (FACS) was employed. For flow cytometric analyses, Xi-GFP mEpiSCs were dissociated into single cell suspensions with Accutase. The single cells were stained with a CD31 (PECAM) antibody (Clone MEC13.3/BD Bioscience (Franklin Lakes, N.J., USA)) conjugated with allophycocyanin, or APC. The stained cells were analyzed using MACSQuant VYB (Miltenyi Biotec, San Diego, Calif., USA) and FlowJo (FlowJo LLC, Ashland, Oreg., USA) software. […] In the LIF+2i and SNL-CM, the GFP^+ populations were also CD31^+, a marker for mouse naïve pluripotent stem cells (FIG. 1, panel C).
Xi-GFP mEpiSCs were dissociated with Accutase into single cell suspensions, and the single cells were seeded on a fibronectin-coated plate in the Activin A and bFGF-containing medium with two different cell densities (20,000 cells or 3,000 cells/well of a 6-well plate) one day before starting conversion experiments. Twenty-four hours after the seeding, fresh primed media was replenished as a negative control or changed to naïve medium. Assay medium was changed every 24 hours and GFP fluorescent was checked daily by microscopic inspection for eight (with 20,000 starting cells) to 13 days (with 3,000 starting cells).
The naïve media contained 1,000 units LIF (Millipore), 10 ng/ml BMP4 (R&D systems), 64 μg/ml L-ascorbic acid 2-phosphate (Sigma), 10 nM to 100 nM LPA (Avanti Polar Lipids (Alabaster, Ala., USA)), and/or 100 nM OMPT (Avanti Polar Lipids (Alabaster, Ala., USA)) in N2B27 basal medium purchased from StemCells Inc (Palo Alto, Calif., USA) or prepared in house for use in FIGS. 4 and 5. The in house N2B27 medium consists of 500 ml DMEM/F12+GlutaMax (Life Technologies (Carlsbad, Calif., USA), 500 ml Neurobasal medium (Life Technologies (Carlsbad, Calif., USA)), 5 ml N2 supplement (Life Technologies (Carlsbad, Calif., USA)), 10 ml B27 supplement (Life Technologies (Carlsbad, Calif., USA)), 666 μl 7.5% BSA Fraction V (Life Technologies (Carlsbad, Calif., USA)) and 5 ml GlutaMax (Life Technologies (Carlsbad, Calif., USA)/1 liter. At the end of the conversion experiments, the conversion efficiencies were evaluated by counting GFP^+ cell clusters or by flow cytometer.

hiPSCs [2] = assay: Reversion of primed hiPSCs containing episomal reprogramming factors in reversion media; type: cell-based, human; conditions: for conversion to cells with features of naïve pluripotency (dome shaped colonies): 1 μM OMPT, 10 ng/mL LIF in StemFit, no bFGF, TGF-β, laminin-511
Text: These naive-like cells formed three-dimensional dome shaped colonies characteristic of naïve pluripotent stem cells and very different from the colony morphology of primed hiPSCs. […] In addition, they provide the basis for further investigation of whether modulating the LPA-LPAR-RHO signaling axis can be used to generate and maintain human naïve pluripotent stem cells.

hiPSCs [3] = assay: Reversion of primed integration-free hiPSCs in lipid containing reversion media; type: cell-based, human
Description: Human iPSCs were generated with episomal vectors expressing Oct4, Sox2, Klf4, myc, Lin28 and shRNA against […] using the methods described by Okita et al. (2011) Nature Methods 8(5):409-412. The hiPSCs were grown in primed media containing bFGF and TGF-β in StemFit basal medium (or mTeSR orE8). Primed hiPSCs were then switched to reversion media and cultured on laminin-511 under hypoxic conditions. The reversion media contained 10 ng/mL LIF, 10 ng/mL Activin A, 100 ng/mL bFGF, 1 μM PD0325901 MEK inhibitor, 1 μM CHIR99021 GSK3β inhibitor, and 2 mM N-acetyl cysteine in StemFit basal medium with various concentrations of lipids (2 μM OMPT, 1 μM OMPT, 1 μM OMPT+20 nM LPA, or no lipids). After 5 to 7 days, three-dimensional dome shaped colonies, characteristic of naïve pluripotent stem cells, were observed. […] The naïve cells also expressed NANOG, KLF4, KLF17 and TFCP2L1, markers for naïve human pluripotent stem cells (FIG. 9).

[4] = system: primed pluripotent stem cells; assay: Cell morphology/toxicity of primed PSCs grown in various concentrations of LPA or OMPT
Description: To optimize the concentration of LPA and OMPT, primed pluripotent stem cells were grown in various concentrations of LPA or OMPT.

Xi-GFP mEpiSCs [5] = assay: Xi-reactivation in Xi-GFP mEpiSC reporter line, GFP positive clusters by fluorescence microscopy; type: cell-based, mouse; conditions: exogenous addition to SNL-CM and non-CM+LIF
Description: During somatic cell reprogramming the human Xi is reliably reactivated in hiPSCs reprogrammed on SNL feeder cells. […] It was first determined whether the culture conditions that promoted reactivation of the Xi during reprogramming also promoted Xi-reactivation of mouse EpiSCs, which are XaXi. Results of culturing an X-GFP mEpiSC reporter line, in which the green fluorescent protein (GFP) gene is located on the X-chromosome in different media were assayed by fluorescence microscopy. Gillich et al., (2012) Cell Stem Cell 10(4):[…], Bao et al., (2009) Nature 461(7268):1292-1295. Xi-GFP mEpiSCs were kindly provided by Drs. Azim Surani and Siqin Bao and were routinely maintained on a fibronectin (Sigma, St. Louis, Mo., USA)-coated plate (feeder free condition) in N2B27 basal medium (Ndiff 227 medium from StemCells Inc (Palo Alto, Calif., USA) and later from Clontech (Mountain View, Calif., USA) supplemented with 20 ng/ml Activin A (R&D systems (Minneapolis, Minn., USA)) and 12 ng/ml bFGF (Millipore (Billerica, Mass., USA)). Cells were passaged every two to three days at a 1:20 dilution from a previous culture after detached/scraped and dissociated with Accutase (Millipore (Billerica, Mass., USA)).
Cells remain GFP negative when cultured under feeder-free mEpiSC conditions, N2B27 medium containing Activin A and bFGF on fibronectin coated plates (FIG. 1, panels A and B). […]

Cc1noc(-c2ccc(CSCCC(=O)O)cc2)c1NC(=O)OC(C)c1ccccc1Cl (stereo not shown) [Ki16425]
% of GFP^+ cells (Xi-GFP mEpiSCs [1]; added to medium containing LIF+LPA or LIF alone): significantly reduces

CCCCCCCC/C=C\CCCCCCCC(=O)OC[C@H](COP(O)(O)=S)OC [OMPT, 1-oleoyl-2-methyl-sn-glycero-3-phosphothioate]
conversion to cells with features of naïve pluripotency (dome shaped colonies) (hiPSCs [2]): cells with features of naïve pluripotency were observed
time for which three-dimensional dome shaped colonies were maintained (hiPSCs [3]; 2 μM or 1 μM OMPT, or 1 μM OMPT+20 nM LPA, laminin-511, hypoxic, approximately five passages): more than one month
conversion of hiPSCs to cells with characteristics of naïve PSCs (colony morphology) (hiPSCs [3]; compared to control media containing no lipids, FIG. 7): converts the hiPSCs to cells with characteristics of naïve PSCs

NC(=O)c1ccc(-c2nc(-c3ccc4c(c3)OCO4)c(-c3ccccn3)[nH]2)cc1 [SB431542]
% of GFP/CD31 double positive cells (Xi-GFP mEpiSCs [1]; added to MEF-CM containing LIF): enhances induction of the double positive cells

O=C1O[C@H]([C@@H](O)CO)C(O)=C1O [ascorbic acid]
% of GFP/CD31 double positive cells compared with LIF alone (Xi-GFP mEpiSCs [1]): increased

bFGF: basic fibroblast growth factor
LIF induced Xi-reactivation (GFP/CD31 double positive cells) (Xi-GFP mEpiSCs [1]): negative effects

lysophosphatidic acid [LPA]
conversion to cells with features of naïve pluripotency (dome shaped colonies) (hiPSCs [2]): converted to cells with characteristics of naïve PSCs
NANOG expression of naive-like cells (hiPSCs [2]; antibody staining, FIG. 6): continue to express NANOG
induction of GFP^+ cells (Xi-GFP mEpiSCs [1]; N2B27, without LIF): induced GFP^+ cells, albeit less efficiently than with LIF
toxicity to primed pluripotent stem cells ([4]; 50 nM and 100 nM): toxic
concentration at which cell toxicities were observed ([4]; FIG. 8): ≥ 10 nM

B1: BMP4: bone morphogenetic protein (protein, UniProt P12644 293-408, looked up)
Bone morphogenetic protein 4: SPKHHSQRARKKNKNCRRHSLYVDFSDVGWNDWIVAPPGYQAFYCHGDCPFPLADHLNSTNHAIVQTLVNSVNSSIPKACCVPTELSAISMLYLDEYDKVVLKNYQEMVVEGCGCR
% of GFP/CD31 double positive cells compared with LIF alone (Xi-GFP mEpiSCs [1]): dramatically increased
GFP/CD31 double positive cells (Xi-GFP mEpiSCs [1]; alone in N2B27 basal medium (without bFGF or Activin A), data not shown): did not induce GFP/CD31 double positive cells

B2: Activin A: cytokine required for maintaining primed pluripotency in mEpiSCs (protein, UniProt Q04998 309-424, looked up)
Inhibin beta A chain: GLECDGKVNICCKKQFFVSFKDIGWNDWIIAPSGYHANYCEGECPSHIAGTSGSSLSFHSTVINHYRMRGHSPFANLKSCCVPTKLRPMSMLYYDDGQNIIKKDIQNMIVEECGCS
modifications: Inhibin beta A chain
numbers of GFP+ clusters (Xi-GFP mEpiSCs [5]): significantly reduced
LIF induced Xi-reactivation (GFP/CD31 double positive cells) (Xi-GFP mEpiSCs [1]): negative effects
